Data taken from US5977326A, “Process for making morphine-6-glucuronide or substituted morphine-6-glucuronide” (priority 1991, dated 1999).

Experiments:
[1] = In vivo antinociceptive activity (A.U.C.), animal pain model; details: area under the time effect curve
Description: *A.U.C. = area under the time effect curve.

[2] = versus morphine; R. Osborne et al., The Lancet, 1988, 828; cited from earlier work
[3] = target: μ1 Receptor (opioid analgesia receptor) (Homo sapiens, UniProt P35372); type: binding
μ1 Receptor (opioid analgesia receptor), sequence (P35372 whole entry): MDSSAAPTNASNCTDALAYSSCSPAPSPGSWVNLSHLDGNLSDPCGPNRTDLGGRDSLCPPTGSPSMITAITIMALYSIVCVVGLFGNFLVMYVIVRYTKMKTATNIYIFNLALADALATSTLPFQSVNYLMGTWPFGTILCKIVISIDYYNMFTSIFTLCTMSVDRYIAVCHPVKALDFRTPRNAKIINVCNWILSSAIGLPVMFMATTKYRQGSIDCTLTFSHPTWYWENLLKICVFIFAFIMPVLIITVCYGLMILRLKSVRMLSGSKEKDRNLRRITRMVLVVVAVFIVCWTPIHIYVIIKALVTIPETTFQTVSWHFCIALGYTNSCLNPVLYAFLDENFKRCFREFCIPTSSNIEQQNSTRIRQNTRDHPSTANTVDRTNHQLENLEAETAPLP
Description: compound which displaces 50% of a labelled competitive ligand from […]

Q: For CN1CC[C@]23c4c5ccc(O)c4O[C@H]2[C@@H](O)C=C[C@H]3[C@H]1C5 [Compound 1, morphine], which “In vivo antinociceptive (A.U.C.)” value ([1]; 1 mg) is on record?
A: The value was 197.3.

Q: And the “In vivo antinociceptive (A.U.C.)” value ([1]; 2 mg)?
A: The value was 241.4.

Q: And the “In vivo antinociceptive (A.U.C.)” value ([1]; 4 mg)?
A: Its value is 738.3.

Q: What does the source list for CN1CC[C@]23c4c5ccc(O)c4O[C@H]2[C@@H](O[C@@H]2O[C@H](C(=O)O)[C@@H](O)[C@H](O)[C@H]2O)C=C[C@H]3[C@H]1C5 [Compound 2, morphine-6-glucuronide]?
A: In vivo antinociceptive (A.U.C.) ([1]; 2 mg): 209.6; In vivo antinociceptive (A.U.C.) ([1]; 4 mg): 618.1; analgesic power compared with morphine [2]: more powerful analgesic than morphine itself

Q: What does the source list for CN1CC[C@]23c4c5ccc(O)c4O[C@H]2[C@@H](O[C@@H]2OC(C(=O)O)=C[C@H](O)[C@H]2O)C=C[C@H]3[C@H]1C5 [Compound 3]?
A: In vivo antinociceptive (A.U.C.) ([1]; 2 mg): 205.0; In vivo antinociceptive (A.U.C.) ([1]; 4 mg): 168.5; In vivo antinociceptive (A.U.C.) ([1]; 8 mg): 175.5

Q: What does the source list for CN1CC[C@]23c4c5ccc(O)c4O[C@H]2[C@@H](O[C@@H]2O[C@H](C(=O)O)[C@@H](O)[C@H]2O)C=C[C@H]3[C@H]1C5 [Compound 4]?
A: In vivo antinociceptive (A.U.C.) ([1]; 4 mg): 238.1; In vivo antinociceptive (A.U.C.) ([1]; 8 mg): 68.3

Q: For O=C(O)[C@H]1O[C@@H](O[C@H]2C=C[C@H]3[C@H]4Cc5ccc(O)c6c5[C@@]3(CCN4)[C@H]2O6)[C@H](O)[C@@H](O)[C@@H]1O [Compound 5], which “In vivo antinociceptive (A.U.C.)” value ([1]; 2 mg) is on record?
A: The value was 65.6.

Q: What about the “In vivo antinociceptive (A.U.C.)” value ([1]; 4 mg) of the same compound?
A: Its value is 564.8.

Q: What about the “In vivo antinociceptive (A.U.C.)” value ([1]; 8 mg) of the same compound?
A: Its value is 837.9.

Q: With CN1CC[C@]23c4c5ccc(O)c4O[C@H]2[C@@H](O[C@@H]2O[C@H](C(=O)O)[C@@H](O)[C@H](O)[C@H]2O)CC[C@H]3[C@H]1C5 [Compound 6, 1-(7,8-dihydromorphin-6-yl)-β-D-glucopyranosiduronic acid] as the compound, how does the “In vivo antinociceptive (A.U.C.)” value ([1]; 1 mg) read?
A: The value was 277.4.

Q: What about the “In vivo antinociceptive (A.U.C.)” value ([1]; 2 mg) of the same compound?
A: Its value is 720.4.

Q: What about the “In vivo antinociceptive (A.U.C.)” value ([1]; 4 mg) of the same compound?
A: The value was 753.3.

Q: And the “binding affinity to the receptor (μ1), in words” value [3]?
A: Its value is “greatest binding affinity to the relevant receptor (μ1)”.
